In patent publication US9801815B2, “Galenical form for the administration of triptans by buccal transmucous means” (priority 2008, dated 2017):

How the values were obtained:
[1] = dissolution of Sumatriptan in ethanol; assay type: physicochemical; conditions: 2 mg, 4 mg or 6 mg of Sumatriptan for 0.75 ml of ethanol at 35%
Excerpt: This coefficient can be modulated based on the degree of alcohol and the water/ethanol ratio that is used.

[2] = administered via the digestive tract; cited from earlier work
[3] = intra-nasal, 20 mg (nasal spray, Imigrane); cited from earlier work
[4] = system: acute Cluster Headache attack; conditions: subcutaneous injection, single dosage of 6 mg, mean delay of 15 minutes; cited from earlier work

CNS(=O)(=O)Cc1ccc2[nH]cc(CCN(C)C)c2c1 [Sumatriptan]
dissolution in ethanol [1]: complete dissolution | mean volume of theoretical distribution in the human body [2]: 200 L | residual bioavailability [2]: less than 14 % of the administered dose | mean bioavailability of the administered dose [3]: ≤ 10% | remission of the acute Cluster Headache attack [4]: 75%
